These results are taken from patent US10357533B2, “Drug for the effective control of acute and or chronic pain and a method for its administration” (PVP LABS PTE. LTD., priority 2016, dated 2019).

Where two headings read alike, the source gives them in different places. [ ]: non-standard residue; d: D form. Sar = CNCC(=O)O

In one data set the test system is rats. In words: Hot plate test in rats. The format is in vivo. Conditions: for HPL, s (Mean ± SEM): hot plate 52° C. The procedure: The “Hot Plate” test is based on the reflex that rat licking its' feet when the animal comes in contact with a hot surface. The device is a metal surface with a diameter of 30 cm whose temperature is controlled by software. The site is enclosed by a transparent fence with a height of 40 cm. The temperature of the metal pad was set at exactly 52° C. When placing the animal on the surface, you measure the time until the moment when the animal licks its' foot. When analgesics are administered, the time before the rat licks its' feet increases. The licking latency (HPL) of 40 seconds was used as the maximum allowable time of stimulation. The study was conducted on male rats weighing 160-180 g, 6 animals per dose.
Background: In hot-plate and tail-flick tests a longer latency is read as antinociception.

In data set [1] the test system is mice. In words: Acetic acid-induced writhing test in mice. It is filed as in vivo. Conditions: for Number of writhings, n (Mean ± SEM): 15 minutes count. The procedure:
The acetic acid-induced writhing test is a model of a chemical nociceptive stimulus applied by the intraperitoneal injection of acetic acid solution.
Intraperitoneal injection of substances that irritate serous membranes in mice induces distinctive movements, including contractions of abdominal muscles followed by muscle relaxation, extension of the hind limbs and curving of the back, known as writhing. Mice were given an intraperitoneal injection of 1% acetic acid at a dose of 0.1 mL per 10 g body weight. After the injection the mice were placed in transparent acrylic chambers and counted the number of writhings in each animal for the next 15 minutes. The analgesic effect was evaluated by a reduction in the number of writhings in mice that received the study drug relative to the control group. […] Writhing onset latency in mice was used as an additional parameter for evaluating the efficacy of the substance in the acetic acid-induced writhing test.
(In writhing tests, fewer writhes than in controls are read as antinociception.)

For data set [2], the system named is mice. In words: Open field test and toxicity of high doses in mice. It is filed as in vivo. Conditions: open field, 20 EC50 doses (120 mg/kg). The procedure:
Testing of the influence of the injectable substance based on tetrapeptide (as in example 2) H-Tyr-D-Arg-Phe-Gly-NH2 on the behavior of animals, was provided in the study of the toxicity of high doses of the “open field” test and maintaining balance on a horizontal rod.
The aim of the experiment was to identify an effective dose of the substance that affects the behavior of the animals. It was tested on several animals after administration of different doses of peptide compound.
The experimental and control groups of male mice were taken from the same batch, about the same weight (22-24 g).
The substance was injected intraperitoneally in identical weight amounts to laboratory animals in the experimental and control groups, respectively. […] The measurement was started 15 minutes after injection.
Several groups were organized: without the introduction of the substance, and with the introduction of a solution of morphine or peptide. After 15 from injection we conducted measurement in the following order:
Each animal tested was introduced into a round, not brightly lit arena. The surface is divided into square blocks of 10 cm each. We count locomotor activity of the mouse when it crossed the square. The movement of the mouse in the center of the arena and on the periphery, are recorded separately. We registered the number of times the mouse stands on its hind legs “stand” and the number of times the mouse looks into a “burrow”—ie. holes in the floor. Observations were done visually and were simultaneously entered into a computer using a keyboard (semi-automatic registration).

Data set [3] relates to mice. Conditions: published data, cited from earlier work.
In data set [4] the target is opioid μ-receptors located on GPI (Cavia porcellus, UniProt A0ACM8Q262). In words: Inhibition of electrically stimulated contractions of isolated guinea pig ileum (GPI). It is filed as cell-based. Also on record: amplitude: unit not given here. The procedure: Effect was assessed by ability to inhibit the contraction caused by electrical stimulation of isolated organs—guinea pig ileum (GPI). Work was carried out on a special apparatus for testing substances for opioid activity on the model of guinea pig ileum. GPI, taken from nonlinear animals were placed in a 10 ml volumetric flask with electrodes inserted containing Krebs solution at 34° C. in a water bath (HOECHST Organbad, Germany) with a thermostat for maintaining a constant temperature in the working cell. The lower end of the GPI is fixed to the vessel at the bottom. The upper end of the ligature was attached to the sensor strength registration device (sensors isometric registration K-30, “Hugo Sachs Elektronik KG”, Germany). The initial tension of the organs was 1 gram. The solution with placed in GPI was being constantly aerated. GPI segments were equilibrated in the Krebs solution for one hour.
opioid μ-receptors located on GPI, sequence (A0ACM8Q262 1-400): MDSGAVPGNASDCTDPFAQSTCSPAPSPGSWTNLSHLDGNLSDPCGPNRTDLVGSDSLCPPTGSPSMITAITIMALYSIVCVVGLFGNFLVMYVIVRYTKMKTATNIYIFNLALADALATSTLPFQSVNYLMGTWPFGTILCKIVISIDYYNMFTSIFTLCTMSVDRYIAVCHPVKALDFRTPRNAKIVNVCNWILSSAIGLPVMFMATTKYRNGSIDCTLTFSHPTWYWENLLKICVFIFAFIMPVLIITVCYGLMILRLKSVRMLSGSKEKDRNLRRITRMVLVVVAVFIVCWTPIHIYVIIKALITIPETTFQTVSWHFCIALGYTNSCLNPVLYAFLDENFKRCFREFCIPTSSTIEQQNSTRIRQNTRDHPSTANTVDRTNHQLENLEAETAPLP
GPI contractions were stimulated by plate electrodes with electrical impulses in a series of four rectangular pulses each lasting 0.5 ms and with 1.5 ms intervals, with delays at 7.5 sec. between the series and voltage 80V using a generator of electric impulses (type 215/I, Hugo Sachs Elektronik, Germany). Registration was performed in isometric contraction mode using K30 sensors via two channel amplifiers MS 6601 (“Watanabe”, Japan).
At the beginning stimulation was applied for a minimum of 45 minutes, which allowed reproducible responses to be established.
The tested substance was administered in a solution bathing the organs in a volume of 0.005 to 0.015 ml, to final concentrations of 1×10^−9-1×10^−6 M. Each subsequent introduction of the substance was done 1 minute after the previous dose without washing the organs, on a cumulative basis. […] Active substances were expressed on an indicator pD2 (numerically equal to the negative decimal logarithm of the concentration of a substance that causes 50% of the maximum effect). In other words, the potency of the opioid receptor agonists in the absence and presence of the antagonist was assessed as the negative logarithm of the concentration required to cause 50% of the maximum response (pD2) using the logistic equation described by DeLean A. et al.
During the experiment, the change in GPI amplitude contractions was taken into account and was fixed. Parallel monitoring in 4 chambers with GPI segments for each substance was used.

The subject of data set [5] is mice. Conditions: subcutaneously to mice, acute pain, ringer solution; application JPS6054400; cited from earlier work.

`CN1CC[C@]23c4c5ccc(O)c4O[C@H]2[C@@H](O)C=C[C@H]3[C@H]1C5` [Morphine, reference compound]: the “Proportion of the maximum possible effect (MPE), %” value is 68.6% with rats (5 mg/kg subcutaneous) and 95.7% with rats (15 mg/kg subcutaneous). Moreover, the “HPL, s (Mean ± SEM)” value with rats (5 mg/kg subcutaneous) is on record as 27.45 ± 4.4 s; in the data set on rats (15 mg/kg subcutaneous) it was 38.31 ± 2.63 s. Further, the “% of mice w/o writhing” value with mice [1] (1 mg/kg subcutaneous) was found to be 14.3%; in the data set with mice [1] (3 mg/kg subcutaneous), 37.5%. Moreover, the “Number of mice w/o writhing/number of mice in group” value with mice [1] (1 mg/kg subcutaneous) is 1/7; in the data set with mice [1] (3 mg/kg subcutaneous), 3/8. The entries for the “Writhing onset latency, s (Mean ± SEM)” value in the data set with mice [1] (1 mg/kg subcutaneous) and in the data set on mice [1] (3 mg/kg subcutaneous) were 467.1 ± 74.41 s and 695.0 ± 85.00 s, respectively. The “Number of writhings, n (Mean ± SEM)” value in the data set on mice [1] (1 mg/kg subcutaneous 40 minutes before acetic acid) is on record as 12.4 ± 3.73 n; in the data set on mice [1] (3 mg/kg subcutaneous 40 minutes before acetic acid) it was 2.1 ± 0.83 n. Further, in the data set on mice [2], the physical activity reduced is recorded as 50-70%. The “antinociceptive activity, % of MPE” value is on record as 50% with mice [3] (dosage 7 mg/kg), 75% with mice [3] (dosage 10 mg/kg) and 95% in the data set with mice [3] (dosage 20 mg/kg).

Turning to H-Y[dR]FG-NH2 [TP1], the amplitude is 38.7 in data set [4] (concentration 1.0E−09 M); 9.3 in data set [4] (concentration 1.4E−06 M); 23.0 in data set [4] (concentration 1.4E−07 M); 36.0 in data set [4] (concentration 1.4E−08 M); 38.7 in data set [4] (concentration 4.0E−09 M); 15.7 in data set [4] (concentration 4.4E−07 M). Further, the amplitude in data set [4] (concentration 4.4E−08 M) was determined as 30.3. Also, the inhibit. effect in data set [4] (concentration 1.0E−09 M) turned out to be 0.0%; in data set [4] (concentration 1.4E−06 M) it was 76.6%; in data set [4] (concentration 1.4E−07 M), 41.1%; in data set [4] (concentration 1.4E−08 M), 7.0%; in data set [4] (concentration 4.0E−09 M), 0.0%; in data set [4] (concentration 4.4E−07 M), 61.1%. For the same compound, in data set [4] (concentration 4.4E−08 M), the inhibit. effect amounted to 22.9%. Also, the “analgesic action, times the activity of morphine” value in the data set on mice [5] was “more than 6 times”.

Regarding H-Y[dR]F[Sar]-OH [TP2], the amplitude in data set [4] (concentration 1.0E−09 M) is 38.2; in data set [4] (concentration 1.4E−06 M), 8.6; in data set [4] (concentration 1.4E−07 M) it was 22.0; in data set [4] (concentration 1.4E−08 M) it was 35.3; in data set [4] (concentration 4.0E−09 M), 38.2; in data set [4] (concentration 4.4E−07 M) it was 15.2. Further, in data set [4] (concentration 4.4E−08 M), the amplitude is recorded as 29.7. For the same compound, the inhibit. effect in data set [4] (concentration 1.0E−09 M) is 0.0%; in data set [4] (concentration 1.4E−06 M), 77.5%; in data set [4] (concentration 1.4E−07 M) it was 42.4%; in data set [4] (concentration 1.4E−08 M) it was 7.6%; in data set [4] (concentration 4.0E−09 M), 0.0%; in data set [4] (concentration 4.4E−07 M) it was 60.2%. Further, the inhibit. effect in data set [4] (concentration 4.4E−08 M) was 22.2%.
